target: T1, mouse TRPM3α2 (mTRPM3) ion channel (Mus musculus, UniProt J9SQF3); assay: Monitoring the TRPM3 ion channel driven Ca2+ uptake (Fluo-4 AM assay); format: cell-based; conditions: mTRPM3alpha2 overexpressing flip-in HEK293 cells, stimulated with Pregnenolone sulfate (PS) 50 μM
T1 construct: expressed in transfected cells; host or cells: flip-in (Flp-In) HEK293
Experimental: In order to monitor the inhibition of the mouse TRPM3α2 (mTRPM3) ion channel by the compounds of the invention, a cellular system making use of an mTRPM3alpha2 or hTRPM3 overexpressing cell line (flip-in HEK293) was used. The TRPM3 channel was stimulated/opened with Pregnenolone sulfate (PS) (50 μM) which results in Ca^2+ influx.
For mTRPM3, the intracellular Ca^2+ was measured with a Calcium responsive dye, Fluor-4 AMV ester (Invitrogen). Cells were cultured until a confluence of 80-90%, washed with Versene (Invitrogen) and detached from the surface by a short incubation with 0.05% Trypsin (Invitrogen). The trypsination process was stopped by the addition of complete cell culture medium (DMEM, glutamax, 10% FCS, NEAA,Pen-Strep). Cells were collected and resuspended in Krebs buffer without Calcium at RT.
Prior the cell seeding (±2000 cells/well into a black, 384 well plate (Greiner)) the diluted compound was added in the assay plate, together with the PS dissolved in Krebs buffer containing Calcium. […] Directly after cell addition the plates were read on an Envision fluorescence reader (PerkinElmer) by an Excitation of 485 nm and emission at 535 nm.
Channel inhibition was calculated compared to a non-PS stimulated control versus a condition stimulated with PS (50 μM) with vehicle. The ability of the compounds of the invention to inhibit this activity was determined as: Percentage inhibition=[1−((RFU determined for sample with test compound present−RFU determined for sample with positive control inhibitor) divided by (RFU determined in the presence of vehicle−RFU determined for sample with positive control inhibitor))]*100.
The activities of the Example compounds tested are depicted in the table below. The activity ranges A, B and C refer to IC50 values in the Fluo-4 AM assay as follows: “A”: IC50<1 μM; “B”: 1 μM≤IC50≤20 μM and “C”: IC50>20 μM

T1 sequence (J9SQF3 1-1709 isoform J9SQF3-12): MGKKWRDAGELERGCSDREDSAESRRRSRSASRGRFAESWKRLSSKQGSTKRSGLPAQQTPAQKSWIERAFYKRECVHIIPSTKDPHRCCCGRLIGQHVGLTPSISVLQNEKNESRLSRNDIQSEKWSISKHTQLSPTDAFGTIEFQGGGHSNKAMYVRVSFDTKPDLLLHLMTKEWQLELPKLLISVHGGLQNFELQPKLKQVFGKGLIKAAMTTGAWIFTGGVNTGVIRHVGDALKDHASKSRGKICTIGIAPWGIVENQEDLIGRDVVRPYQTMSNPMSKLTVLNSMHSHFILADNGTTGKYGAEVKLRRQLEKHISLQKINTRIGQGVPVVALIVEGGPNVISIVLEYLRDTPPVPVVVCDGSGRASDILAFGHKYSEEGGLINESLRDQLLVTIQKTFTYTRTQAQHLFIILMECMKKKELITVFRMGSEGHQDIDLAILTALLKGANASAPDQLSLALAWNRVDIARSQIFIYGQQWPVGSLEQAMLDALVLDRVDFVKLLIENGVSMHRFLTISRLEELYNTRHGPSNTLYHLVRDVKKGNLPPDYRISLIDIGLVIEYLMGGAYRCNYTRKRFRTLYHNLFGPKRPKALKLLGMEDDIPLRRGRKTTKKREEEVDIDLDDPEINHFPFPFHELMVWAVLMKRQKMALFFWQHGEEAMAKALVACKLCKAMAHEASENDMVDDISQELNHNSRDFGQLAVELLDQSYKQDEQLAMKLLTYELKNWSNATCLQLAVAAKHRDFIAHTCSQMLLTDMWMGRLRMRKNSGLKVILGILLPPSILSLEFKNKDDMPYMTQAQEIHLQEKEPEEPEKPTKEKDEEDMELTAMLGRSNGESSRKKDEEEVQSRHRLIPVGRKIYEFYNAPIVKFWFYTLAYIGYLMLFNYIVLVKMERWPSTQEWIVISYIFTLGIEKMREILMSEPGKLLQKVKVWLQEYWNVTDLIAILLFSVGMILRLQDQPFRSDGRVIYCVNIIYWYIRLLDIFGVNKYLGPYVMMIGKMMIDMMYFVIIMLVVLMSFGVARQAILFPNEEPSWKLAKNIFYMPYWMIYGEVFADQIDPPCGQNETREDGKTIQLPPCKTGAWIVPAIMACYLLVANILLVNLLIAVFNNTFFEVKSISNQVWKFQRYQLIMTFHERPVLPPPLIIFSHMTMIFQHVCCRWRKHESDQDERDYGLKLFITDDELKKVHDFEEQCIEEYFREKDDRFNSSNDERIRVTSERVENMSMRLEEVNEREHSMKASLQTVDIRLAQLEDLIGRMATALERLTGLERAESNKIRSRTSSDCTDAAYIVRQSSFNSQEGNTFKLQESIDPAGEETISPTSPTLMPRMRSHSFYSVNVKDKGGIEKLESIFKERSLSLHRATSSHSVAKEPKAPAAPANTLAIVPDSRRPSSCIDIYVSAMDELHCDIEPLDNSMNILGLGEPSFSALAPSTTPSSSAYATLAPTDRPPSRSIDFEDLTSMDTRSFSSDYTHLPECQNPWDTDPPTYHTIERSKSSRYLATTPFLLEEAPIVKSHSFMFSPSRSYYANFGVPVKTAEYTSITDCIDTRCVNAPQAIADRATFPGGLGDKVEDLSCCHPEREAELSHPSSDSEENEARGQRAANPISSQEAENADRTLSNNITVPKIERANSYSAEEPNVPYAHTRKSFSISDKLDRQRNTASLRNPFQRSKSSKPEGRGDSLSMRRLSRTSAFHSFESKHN

Row | IC50 [µM] | SMILES
1 | < 1 | Cc1oc2ccc(OCC3CC3(C)C)cc2c1C(=O)NC(C)(CO)C(N)=O (single isomer, unassigned) [Cpd 049 - En1, 2-({5-[(2,2-dimethylcyclopropyl)methoxy]-2-methyl-1-benzofuran-3-yl}formamido)-3-hydroxy-2-methylpropanamide]
2 | 1 to 20 | Cc1oc2ccc(OCC3CC(F)(F)C3)cc2c1C(=O)NC(C)(CO)C(N)=O (single isomer, unassigned) [Cpd 054 - En1, 2-({5-[(3,3-difluorocyclobutyl)methoxy]-2-methyl-1-benzofuran-3-yl}formamido)-3-hydroxy-2-methylpropanamide]
3 | < 1 | Cc1oc2ccc(OCC3CC3(F)F)cc2c1C(=O)NC(CO)CC(F)(F)F (single isomer, unassigned) [Cpd 057 - En2, 5-[(2,2-difluorocyclopropyl)methoxy]-2-methyl-N-(4,4,4-trifluoro-1-hydroxybutan-2-yl)-1-benzofuran-3-carboxamide]
4 | < 1 | Cc1oc2ccc(OCC3(C)CC3)cc2c1C(=O)NC1CCNCC1(F)F (single isomer, unassigned) [Cpd 032 - En1, N-(3,3-difluoropiperidin-4-yl)-2-methyl-5-[(1-methylcyclopropyl)methoxy]-1-benzofuran-3-carboxamide]
5 | < 1 | Cc1oc2ccc(OC[C@H]3C[C@@H]4C[C@@H]4C3)cc2c1C(=O)NC(C)(CO)C(N)=O (single isomer, unassigned) [Cpd 051 - En2, Trans-2-{[5-({bicyclo[3.1.0]hexan-3-yl}methoxy)-2-methyl-1-benzofuran-3-yl]formamido}-3-hydroxy-2-methylpropanamide]
6 | < 1 | Cc1oc2cc(F)c(OCC3CC3)cc2c1C(=O)NC(C)(CO)C(N)=O (single isomer, unassigned) [Cpd 045 - En1, 2-{[5-(cyclopropylmethoxy)-6-fluoro-2-methyl-1-benzofuran-3-yl]formamido}-3-hydroxy-2-methylpropanamide]
7 | 1 to 20 | Cc1oc2ccc(OCC3(C)CC3)cc2c1C(=O)NC1CCNCC1(F)F (single isomer, unassigned) [Cpd 032 - En2, N-(3,3-difluoropiperidin-4-yl)-2-methyl-5-[(1-methylcyclopropyl)methoxy]-1-benzofuran-3-carboxamide]
8 | > 20 | Cc1oc2ccc(OCC3(C(F)(F)F)CC3)cc2c1C(=O)NC1(C)CCCNC1=O (single isomer, unassigned) [Cpd 061 - En1, 2-methyl-N-(3-methyl-2-oxopiperidin-3-yl)-5-{[1-(trifluoromethyl)cyclopropyl]methoxy}-1-benzofuran-3-carboxamide]
9 | < 1 | Cc1oc2ccc(OCC3CC3(F)F)cc2c1C(=O)NC(CO)CC(F)(F)F (single isomer, unassigned) [Cpd 057 - En1, 5-[(2,2-difluorocyclopropyl)methoxy]-2-methyl-N-(4,4,4-trifluoro-1-hydroxybutan-2-yl)-1-benzofuran-3-carboxamide]
10 | < 1 | Cc1oc2ccc(OCC3CCCC3(F)F)cc2c1C(=O)NC(CO)C(N)=O (stereo not shown) [Cpd 013, 2-({5-[(2,2-difluorocyclopentyl)methoxy]-2-methyl-1-benzofuran-3-yl}formamido)-3-hydroxypropanamide]
11 | 1 to 20 | Cc1oc2ccc(OCC(F)F)cc2c1C(=O)NC(C)(CO)C(N)=O (single isomer, unassigned) [Cpd 041 - En2, 2-{[5-(2,2-difluoroethoxy)-2-methyl-1-benzofuran-3-yl]formamido}-3-hydroxy-2-methylpropanamide]
12 | < 1 | Cc1oc2ccc(OCC3CCC3)cc2c1C(=O)NC1CCNCC1(F)F (single isomer, unassigned) [Cpd 019 - En2, 5-(cyclobutylmethoxy)-N-(3,3-difluoropiperidin-4-yl)-2-methyl-1-benzofuran-3-carboxamide]
13 | < 1 | Cc1oc2ccc(OCC3CC3)cc2c1C(=O)NC1(CO)COC1 [Cpd 029, 5-(cyclopropylmethoxy)-N-[3-(hydroxymethyl)oxetan-3-yl]-2-methyl-1-benzofuran-3-carboxamide]
14 | < 1 | Cc1oc2ccc(OCC3CC3)cc2c1C(=O)NC1(CO)CCNC1=O (single isomer, unassigned) [Cpd 028 - En2, 5-(cyclopropylmethoxy)-N-[3-(hydroxymethyl)-2-oxopyrrolidin-3-yl]-2-methyl-1-benzofuran-3-carboxamide]
15 | < 1 | Cc1oc2ccc(OCC3CC(F)(F)C3)cc2c1C(=O)NC(C)(CO)C(N)=O (single isomer, unassigned) [Cpd 054 - En2, 2-({5-[(3,3-difluorocyclobutyl)methoxy]-2-methyl-1-benzofuran-3-yl}formamido)-3-hydroxy-2-methylpropanamide]
16 | < 1 | COCC(C)(CO)NC(=O)c1c(C)oc2ccc(OCC3(C(F)(F)F)CC3)cc12 (single isomer, unassigned) [Cpd 060 - En2, N-(1-hydroxy-3-methoxy-2-methylpropan-2-yl)-2-methyl-5-{[1-(trifluoromethyl)cyclopropyl]methoxy}-1-benzofuran-3-carboxamide]
17 | < 1 | Cc1oc2ccc(OCC3CC3)cc2c1C(=O)NC1(CO)CCNC1=O (single isomer, unassigned) [Cpd 028 - En1, 5-(cyclopropylmethoxy)-N-[3-(hydroxymethyl)-2-oxopyrrolidin-3-yl]-2-methyl-1-benzofuran-3-carboxamide]
18 | < 1 | Cc1oc2ccc(OCC3CC3(F)F)cc2c1C(=O)NC1CCNCC1(F)F (single isomer, unassigned) [Cpd 031 - En4, 5-[(2,2-difluorocyclopropyl)methoxy]-N-(3,3-difluoropiperidin-4-yl)-2-methyl-1-benzofuran-3-carboxamide]
19 | < 1 | Cc1oc2ccc(OCC3CC3)cc2c1C(=O)NC1CCNCC1(F)F (single isomer, unassigned) [Cpd 024-En2, 5-(cyclopropylmethoxy)-N-(3,3-difluoropiperidin-4-yl)-2-methyl-1-benzofuran-3-carboxamide]
20 | 1 to 20 | COCC(C)(CO)NC(=O)c1c(C)oc2ccc(OCC3(C(F)(F)F)CC3)cc12 (single isomer, unassigned) [Cpd 060 - En1, N-(1-hydroxy-3-methoxy-2-methylpropan-2-yl)-2-methyl-5-{[1-(trifluoromethyl)cyclopropyl]methoxy}-1-benzofuran-3-carboxamide]
21 | 1 to 20 | Cc1oc2ccc(OC[C@H]3C[C@H](C)C3)cc2c1C(=O)NC(C)(CO)C(N)=O (single isomer, unassigned) [Cpd 059 - En2, Trans-3-hydroxy-2-methyl-2-({2-methyl-5-[(3-methylcyclobutyl)methoxy]-1-benzofuran-3-yl}formamido)propenamide]
22 | < 1 | Cc1oc2ccc(OCC(F)F)cc2c1C(=O)N[C@@H](CO)C(N)=O [Cpd 038, (2S)-2-{[5-(2,2-difluoroethoxy)-2-methyl-1-benzofuran-3-yl]formamido}-3-hydroxypropanamide]
23 | < 1 | Cc1oc2ccc(OCC3CC3)cc2c1C(=O)NC1(C(N)=O)CCOC1 (single isomer, unassigned) [Cpd 035 - En1, N-(3-carbamoyloxolan-3-yl)-5-(cyclopropylmethoxy)-2-methyl-1-benzofuran-3-carboxamide]
24 | < 1 | Cc1oc2ccc(OCC34CC(C)(C3)C4)cc2c1C(=O)NC(C)(CO)C(N)=O (single isomer, unassigned) [Cpd 052 - En1, 3-hydroxy-2-methyl-2-{[2-methyl-5-({3-methylbicyclo[1.1.1]pentan-1-yl}methoxy)-1-benzofuran-3-yl]formamido}propenamide]
25 | < 1 | Cc1oc2ccc(OCC3CC3)cc2c1C(=O)NC1(CO)CCCNC1=O (single isomer, unassigned) [Cpd 027 - En1, 5-(cyclopropylmethoxy)-N-[3-(hydroxymethyl)-2-oxopiperidin-3-yl]-2-methyl-1-benzofuran-3-carboxamide]
26 | < 1 | Cc1oc2ccc(OCC3CCC3)cc2c1C(=O)N[C@@H](C)C(N)=O [Cpd 007, (2S)-2-{[5-(cyclobutylmethoxy)-2-methyl-1-benzofuran-3-yl]formamido}propanamide]
27 | < 1 | Cc1oc2ccc(OCC3CC3)cc2c1C(=O)NC1CCCNC1=O (single isomer, unassigned) [Cpd 055 - En1, 5-(cyclopropylmethoxy)-2-methyl-N-(2-oxopiperidin-3-yl)-1-benzofuran-3-carboxamide]
28 | < 1 | Cc1oc2ccc(OCC(C)(C)C)cc2c1C(=O)N[C@@H](CO)C(N)=O [Cpd 039, (2S)-2-{[5-(2,2-dimethylpropoxy)-2-methyl-1-benzofuran-3-yl]formamido}-3-hydroxypropanamide]
